Literature values as cited in article PMC3479967 (Evidence-based Complementary and Alternative Medicine : eCAM, 2012).

Design: method as in PMID 17632044
Conditions: after a single oral administration of Epimedium pubescens decoction; cited from earlier work

For `COc1ccc(-c2oc3c(CC=C(C)C)c(O)cc(O)c3c(=O)c2O)cc1` [Icaritin], the “Reported icaritin concentration in blood” value is listed as 1.5 nM.
